Test results: patent publication US20230111310A1, “CARBOXYLIC ACID DERIVATIVE-SUBSTITUTED IMINO ARYL COMPOUND, PREPARATION METHOD THEREFOR, HERBICIDAL COMPOSITION AND USE THEREOF” (Qingdao Kingagroot Chemical Compound Co., Ltd., priority 2020, published 2023)

Tests used:
Assay type in all cases: in vivo
[1] = test system: Abutilon theophrasti; test: Weeding effect in post-emergence stage; conditions: Dose 15 g/ha; for Weeding effect in post-emergence stage, Abutilon theophrasti: level of fresh weight growth control rate
Outline: (§1)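 Post-emergence spray tower; 2-3 leaf plants (2 wk after sowing, soil pots, greenhouse). Formulation: acetone, Tween 80, methyl oleate EC 1.5 liter/ha as synergist, water. Rates 500–7.5 g/ha. Growth control rate read at 3 wk; n=3, averaged.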

[2] = test system: Alopecurus japonicus; test: Weeding effect in post-emergence stage; conditions: Dose 15 g/ha; for Weeding effect in post-emergence stage, Alopecurus japonicus: level of fresh weight growth control rate
Outline: as §1

[3] = test system: Digitaria sanguinalis; test: Weeding effect in post-emergence stage; conditions: Dose 15 g/ha; for Weeding effect in post-emergence stage, Digitaria sanguinalis: level of fresh weight growth control rate
Outline: as §1

[4] = test system: Eleusine indica; test: Weeding effect in post-emergence stage; conditions: Dose 15 g/ha; for Weeding effect in post-emergence stage, Eleusine indica: level of fresh weight growth control rate
Outline: as §1

[5] = test system: Setaria viridis; test: Weeding effect in post-emergence stage; conditions: Dose 15 g/ha; for Weeding effect in post-emergence stage, Setaria viridis: level of fresh weight growth control rate
Outline: as §1

[6] = test system: Echinochloa crusgalli; test: Weeding effect in post-emergence stage; conditions: Dose 15 g/ha; for Weeding effect in post-emergence stage, Echinochloa crusgalli: level of fresh weight growth control rate
Outline: as §1

[7] = test system: Abutilon theophrasti; test: Weeding effect in pre-emergence stage; conditions: 30 g/ha, 4 weeks
Protocol: (§2) The activity level criteria for plant damage (i.e., growth control rate) are as follows:
(§3) The aforementioned seeds of monocotyledonous and dicotyledonous weeds and main crops were put into a plastic pot loaded with soil and covered with 0.5-2 cm soil. The test compounds of the present invention was dissolved with acetone, then added with tween 80, diluted by a certain amount of water to reach a certain concentration, and sprayed immediately after sowing. The obtained seeds were incubated for 4 weeks in the greenhouse after spraying and the test results were observed. It was observed that the herbicide mostly had excellent effect at the application rate of 500, 250, 125, 60, 30, 15, 7.5 g/ha, especially to weeds such as Echinochloa crusgalli. Digitaria sanguinalis and Abutilon theophrasti, etc. And many compounds had good selectivity for corn, cotton, wheat, rice, soybean, and peanut etc. In addition, evaluate the weed control effect with the above activity standard level.

[8] = test system: Amaranthus retroflexus; test: Weeding effect in pre-emergence stage; conditions: 30 g/ha, 4 weeks
Protocol: as §2, §3

[9] = test system: Capsella bursa-pastoris; test: Weeding effect in pre-emergence stage; conditions: 30 g/ha, 4 weeks
Protocol: as §2, §3

[10] = test system: Descurainia sophia; test: Weeding effect in pre-emergence stage; conditions: 30 g/ha, 4 weeks
Protocol: as §2, §3

[11] = test system: Setaria viridis; test: Weeding effect in pre-emergence stage; conditions: 30 g/ha, 4 weeks
Protocol: as §2, §3

[12] = test system: Veronica didyma Tenore; test: Weeding effect in pre-emergence stage; conditions: 30 g/ha, 4 weeks
Protocol: as §2, §3

[13] = test system: Peanut; test: Pre-emergence stage, crop selectivity; conditions: 30 g/ha, 4 weeks
Protocol: as §2, §3

[14] = test system: Soybeans; test: Pre-emergence stage, crop selectivity; conditions: 30 g/ha, 4 weeks
Protocol: as §2, §3

[15] = test system: corn; test: Pre-emergence stage, crop selectivity; conditions: 30 g/ha, 4 weeks
Protocol: as §2, §3

[16] = test system: cotton; test: Pre-emergence stage, crop selectivity; conditions: 30 g/ha, 4 weeks
Protocol: as §2, §3

[17] = fresh weight control rate level

Row | Compound | activity level (growth control rate) Abutilon theophrasti [7] | activity level (growth control rate) Amaranthus retroflexus [8] | activity level (growth control rate) Capsella bursa-pastoris [9] | activity level (growth control rate) Descurainia sophia [10] | activity level (growth control rate) Setaria viridis [11] | activity level (growth control rate) Veronica didyma Tenore [12] | plant damage level Peanut [13] | plant damage level Soybeans [14] | plant damage level Corn [15] | plant damage level Cotton [16] | Weeding effect in post-emergence stage, Abutilon theophrasti [1] | Weeding effect in post-emergence stage, Alopecurus japonicus [2] | Weeding effect in post-emergence stage, Digitaria sanguinalis [3] | Weeding effect in post-emergence stage, Eleusine indica [4] | Weeding effect in post-emergence stage, Setaria viridis [5] | Weeding effect in post-emergence stage, Echinochloa crusgalli [6] | also measured
1 | COC(=O)[C@@H](C)O/N=C/c1cc(-n2c(=O)c(Cl)c(C(F)(F)F)n(C)c2=O)c(F)cc1Cl [431(R)] | 5 (Level 5: growth control rate is above 85%) | 5 (Level 5: growth control rate is above 85%) | 5 (Level 5: growth control rate is above 85%) | 5 (Level 5: growth control rate is above 85%) | 5 (Level 5: growth control rate is above 85%) | 5 (Level 5: growth control rate is above 85%) | 0 (Level 0: growth control rate is less than 5%) | 0 (Level 0: growth control rate is less than 5%) | 0 (Level 0: growth control rate is less than 5%) | 0 (Level 0: growth control rate is less than 5%) | – | – | – | – | – | – | Weeding effect in post-emergence stage, Abutilon theophrasti (level) [1, 17]: 5 (Level 5: growth control rate is above 85%); Weeding effect in post-emergence stage, Alopecurus japonicus (level) [2, 17]: 5 (Level 5: growth control rate is above 85%); Weeding effect in post-emergence stage, Digitaria sanguinalis (level) [3, 17]: 5 (Level 5: growth control rate is above 85%); Weeding effect in post-emergence stage, Eleusine indica (level) [4, 17]: 5 (Level 5: growth control rate is above 85%); Weeding effect in post-emergence stage, Setaria viridis (level) [5, 17]: 5 (Level 5: growth control rate is above 85%); Weeding effect in post-emergence stage, Echinochloa crusgalli (level) [6, 17]: 5 (Level 5: growth control rate is above 85%)
2 | CCOC(=O)COC(=O)[C@@H](C)O/N=C/c1cc(-n2c(=O)cc(C(F)(F)F)n(C)c2=O)c(F)cc1Cl [239(R)] | 5 (Level 5: growth control rate is above 85%) | 5 (Level 5: growth control rate is above 85%) | 5 (Level 5: growth control rate is above 85%) | 5 (Level 5: growth control rate is above 85%) | 5 (Level 5: growth control rate is above 85%) | 5 (Level 5: growth control rate is above 85%) | 0 (Level 0: growth control rate is less than 5%) | 0 (Level 0: growth control rate is less than 5%) | 0 (Level 0: growth control rate is less than 5%) | 0 (Level 0: growth control rate is less than 5%) | 5 (Level 5: growth control rate is above 85%) | 5 (Level 5: growth control rate is above 85%) | 5 (Level 5: growth control rate is above 85%) | 5 (Level 5: growth control rate is above 85%) | 5 (Level 5: growth control rate is above 85%) | 5 (Level 5: growth control rate is above 85%) | –
3 | C[C@@H](O/N=C/c1cc(-n2c(=O)cc(C(F)(F)F)n(C)c2=O)c(F)cc1Cl)C(=O)OCC1CCCO1 (stereo partly drawn) [264(R)] | 5 (Level 5: growth control rate is above 85%) | 5 (Level 5: growth control rate is above 85%) | 5 (Level 5: growth control rate is above 85%) | 5 (Level 5: growth control rate is above 85%) | 5 (Level 5: growth control rate is above 85%) | 5 (Level 5: growth control rate is above 85%) | 0 (Level 0: growth control rate is less than 5%) | 0 (Level 0: growth control rate is less than 5%) | 0 (Level 0: growth control rate is less than 5%) | 0 (Level 0: growth control rate is less than 5%) | 5 (Level 5: growth control rate is above 85%) | 5 (Level 5: growth control rate is above 85%) | 5 (Level 5: growth control rate is above 85%) | 5 (Level 5: growth control rate is above 85%) | 5 (Level 5: growth control rate is above 85%) | 5 (Level 5: growth control rate is above 85%) | –
4 | COC(=O)[C@@H](C)O/N=C/c1cc(-n2c(=S)cc(C(F)(F)F)n(C)c2=O)c(F)cc1Cl [349(R)] | 5 (Level 5: growth control rate is above 85%) | 5 (Level 5: growth control rate is above 85%) | 5 (Level 5: growth control rate is above 85%) | 5 (Level 5: growth control rate is above 85%) | 5 (Level 5: growth control rate is above 85%) | 5 (Level 5: growth control rate is above 85%) | 0 (Level 0: growth control rate is less than 5%) | 0 (Level 0: growth control rate is less than 5%) | 0 (Level 0: growth control rate is less than 5%) | 0 (Level 0: growth control rate is less than 5%) | 5 (Level 5: growth control rate is above 85%) | 5 (Level 5: growth control rate is above 85%) | 5 (Level 5: growth control rate is above 85%) | 5 (Level 5: growth control rate is above 85%) | 5 (Level 5: growth control rate is above 85%) | 5 (Level 5: growth control rate is above 85%) | –
5 | C[C@@H](O/N=C/c1cc(-n2c(=O)cc(C(F)(F)F)n(C)c2=O)c(F)cc1Cl)C(=O)OCc1ccccn1 [301(R)] | 5 (Level 5: growth control rate is above 85%) | 5 (Level 5: growth control rate is above 85%) | 5 (Level 5: growth control rate is above 85%) | 5 (Level 5: growth control rate is above 85%) | 5 (Level 5: growth control rate is above 85%) | 5 (Level 5: growth control rate is above 85%) | 0 (Level 0: growth control rate is less than 5%) | 0 (Level 0: growth control rate is less than 5%) | 0 (Level 0: growth control rate is less than 5%) | 0 (Level 0: growth control rate is less than 5%) | 5 (Level 5: growth control rate is above 85%) | 5 (Level 5: growth control rate is above 85%) | 5 (Level 5: growth control rate is above 85%) | 5 (Level 5: growth control rate is above 85%) | 5 (Level 5: growth control rate is above 85%) | 5 (Level 5: growth control rate is above 85%) | –
6 | CCOC(=O)OC(C)OC(=O)[C@@H](C)O/N=C/c1cc(-n2c(=O)cc(C(F)(F)F)n(C)c2=O)c(F)cc1Cl (stereo partly drawn) [246(R)] | 5 (Level 5: growth control rate is above 85%) | 5 (Level 5: growth control rate is above 85%) | 5 (Level 5: growth control rate is above 85%) | 5 (Level 5: growth control rate is above 85%) | 5 (Level 5: growth control rate is above 85%) | 5 (Level 5: growth control rate is above 85%) | 0 (Level 0: growth control rate is less than 5%) | 0 (Level 0: growth control rate is less than 5%) | 0 (Level 0: growth control rate is less than 5%) | 0 (Level 0: growth control rate is less than 5%) | 5 (Level 5: growth control rate is above 85%) | 5 (Level 5: growth control rate is above 85%) | 5 (Level 5: growth control rate is above 85%) | 5 (Level 5: growth control rate is above 85%) | 5 (Level 5: growth control rate is above 85%) | 5 (Level 5: growth control rate is above 85%) | –
